Measured values published in ChEMBL document CHEMBL1152081, “1,25-Dihydroxyvitamin D3 Hybrid Analogs with Structural changes at both the A-ring and the C,D-ring side-chain. II” (1995).

Assays:
Type in all cases: functional
[1] = species on record: Rattus norvegicus; experiment: Stimulation of calcium currents by the compound in rat osteosarcoma cells at a concentration of 5.0 nM
[2] = species on record: Rattus norvegicus; experiment: Stimulation of calcium currents by the compound in rat osteosarcoma cells at a concentration of 0.5 nM
[3] = species on record: Rattus norvegicus; experiment: Stimulation of calcium currents by the compound in rat osteosarcoma cells at a concentration of 0.01 nM
[4] = species on record: Rattus norvegicus; experiment: Stimulation of calcium currents by the compound in rat osteosarcoma cells at a concentration of 0.05 nM

For `C=C1/C(=C\C=C2/CCC[C@]3(C)C([C@@H](C)CSc4cccc(C(C)(C)O)c4)CC[C@@H]23)C[C@H](O)C[C@H]1CO` (stereo not given in full), the “Ca2+ current” value [1] was 8.58 mV and the “Ca2+ current” value [2] was 6.24 mV.
`C=C1/C(=C\C=C2/CCC[C@]3(C)C([C@@H](C)COCCCC(C)(C)O)CC[C@@H]23)C[C@@H](O)C[C@@H]1CO` (stereo not given in full) was tested, and the “Ca2+ current” value [1] was 8.99 mV, the “Ca2+ current” value [3] was 5.42 mV and the “Ca2+ current” value [2] was 8.8 mV. For the same compound, the “Ca2+ current” value [4] was 7.33 mV.
For `C=C1/C(=C\C=C2/CCC[C@]3(C)C([C@@H](C)COCCCC(C)(C)O)CC[C@@H]23)C[C@H](O)C[C@H]1CO` (stereo not given in full), the “Ca2+ current” value [1] was 8.93 mV, the “Ca2+ current” value [3] was 4.94 mV and the “Ca2+ current” value [2] was 10 mV. The “Ca2+ current” value [4] was 7.3 mV.
For `C=C1/C(=C\C=C2/CCC[C@]3(C)C([C@@H](C)CSc4cccc(C(C)(C)O)c4)CC[C@@H]23)C[C@@H](O)C[C@@H]1CO` (stereo not given in full), the “Ca2+ current” value [1] was 11.18 mV and the “Ca2+ current” value [2] was 6.6 mV.
With `C=C1/C(=C\C=C2/CCC[C@]3(C)[C@@H]([C@H](C)CCCC(C)(C)O)CC[C@@H]23)C[C@@H](O)C[C@@H]1O` [CALCITRIOL] the “Ca2+ current” value [1] was 9.79 mV, the “Ca2+ current” value [2] was 5.73 mV and the “Ca2+ current” value [4] was 1.78 mV.
